Reference: patent US20210179600A1, “OXAZOLE AND THIAZOLE DERIVATIVES AS INHIBITORS OF ASK1” (Hepagene Therapeutics (HK) Limited, priority 2017, published 2021)
pEC50: −log10 of the molar value.

Biological target: T1, Recombinant human ASK1 kinase (Homo sapiens, UniProt Q99683)
T1 construct: purchased Invitrogen Inc
T1 sequence (Q99683 1-1374): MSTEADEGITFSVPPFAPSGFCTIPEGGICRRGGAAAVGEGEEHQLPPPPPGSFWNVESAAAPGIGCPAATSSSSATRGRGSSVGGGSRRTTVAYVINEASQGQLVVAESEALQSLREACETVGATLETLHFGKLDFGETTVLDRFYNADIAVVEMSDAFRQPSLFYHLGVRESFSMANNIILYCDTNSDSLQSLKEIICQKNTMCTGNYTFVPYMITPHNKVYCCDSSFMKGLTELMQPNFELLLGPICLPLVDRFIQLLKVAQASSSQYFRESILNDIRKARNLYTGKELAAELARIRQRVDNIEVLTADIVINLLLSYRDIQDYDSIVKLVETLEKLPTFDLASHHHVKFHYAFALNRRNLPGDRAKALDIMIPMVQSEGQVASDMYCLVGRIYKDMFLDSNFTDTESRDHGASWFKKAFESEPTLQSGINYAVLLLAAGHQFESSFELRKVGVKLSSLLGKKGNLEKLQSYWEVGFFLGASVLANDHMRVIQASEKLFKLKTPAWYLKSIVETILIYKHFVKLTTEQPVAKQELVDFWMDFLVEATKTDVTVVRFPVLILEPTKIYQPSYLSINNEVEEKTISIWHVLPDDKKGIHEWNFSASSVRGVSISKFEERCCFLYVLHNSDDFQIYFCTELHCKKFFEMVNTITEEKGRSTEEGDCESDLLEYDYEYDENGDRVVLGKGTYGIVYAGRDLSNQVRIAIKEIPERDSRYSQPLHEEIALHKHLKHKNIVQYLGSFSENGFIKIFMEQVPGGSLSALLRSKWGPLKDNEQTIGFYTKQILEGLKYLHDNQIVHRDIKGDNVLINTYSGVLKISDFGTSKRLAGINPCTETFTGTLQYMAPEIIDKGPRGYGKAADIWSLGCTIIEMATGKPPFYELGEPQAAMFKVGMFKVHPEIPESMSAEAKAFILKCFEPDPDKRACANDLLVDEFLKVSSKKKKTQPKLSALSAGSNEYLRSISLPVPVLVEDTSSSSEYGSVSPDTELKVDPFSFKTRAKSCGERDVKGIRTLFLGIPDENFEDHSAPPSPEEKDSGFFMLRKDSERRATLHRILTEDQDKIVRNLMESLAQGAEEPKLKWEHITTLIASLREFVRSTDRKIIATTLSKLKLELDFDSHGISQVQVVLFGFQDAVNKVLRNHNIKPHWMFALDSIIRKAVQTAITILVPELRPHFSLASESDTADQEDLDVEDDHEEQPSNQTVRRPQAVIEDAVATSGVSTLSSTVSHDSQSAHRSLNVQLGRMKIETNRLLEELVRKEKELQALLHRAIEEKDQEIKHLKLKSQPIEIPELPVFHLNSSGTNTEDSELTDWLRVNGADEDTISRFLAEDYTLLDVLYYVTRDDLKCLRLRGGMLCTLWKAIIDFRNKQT
Experiment: ASK1 kinase HTRF assay (KinEASE-STK)
Format: biochemical
Details: HTRF detection; 3 nM ASK1 kinase, 1 uM STK-substrate-biotin
Description: Reagents: Recombinant human ASK1 kinase was from Invitrogen Inc. HTRF KinEASE™-STK S3 kit was obtained from Cisbio (Bedford, Mass.). All other reagents were of the highest grade commercially available.
Assay: The assay measures the phosphorylation level of a biotinylatd peptide substrate by the ASK1 kinase using HTRF detection. ASK1 kinase assay is based on HTRF KinEASE™-STK manual from Cisbio. Test compound, 1 uM STK-substrate-biotin, 3 nM of ASK1 kinase are incubated with 1*Kinase buffer with 5 mM MgCl2 and 1 mM DTT. 250 nM Sa-XL 665(4*) and STK-antibody-Cryptate work solution are added to stop the reaction and phosphorylated peptide substrate is detected using Envision 2104 Multilabeled reader from PerkinElmer. The fluorescence is measured at 615 nm (Cryptate) and 665 nm (XL665) and a ratio of 665 nm/615 nm is calculated for each well. The resulting TR-FRET level (a ratio of 665 nm/615 nm) is proportional to the phosphorylation level of substrate.

pEC50 | SMILES
5.30 to 6.30 | CC(C)n1cnnc1-c1cccc(-c2ncc(-c3cccc(C4CCCCC4)c3)o2)n1 [Compound I-131]
6.30 to 7.30 | CC(C)n1cnnc1-c1cccc(-c2ncc(-c3cccc(C4=CCCCC4)c3)o2)n1 [Compound I-132]
6.30 to 7.30 | CC(C)n1cnnc1-c1cccc(-c2ncc(-c3cccc(C4CCCC4)c3)o2)n1 [Compound I-133]
6.30 to 7.30 | CC(C)n1cnnc1-c1cccc(-c2ncc(-c3cccc(C4=CCCC4)c3)o2)n1 [Compound I-134]
≥ 7.30 | C[C@H](CO)n1cnnc1-c1cccc(-c2ncc(-c3cccc(C4CCCC4)c3)o2)n1 [Compound I-135]
≥ 7.30 | C[C@H](CO)n1cnnc1-c1cccc(-c2ncc(-c3cccc(C4=CCCC4)c3)o2)n1 [Compound I-136]
6.30 to 7.30 | CC(C)n1cnnc1-c1cccc(-c2ncc(-c3cccc(C4=CCCCCC4)c3)o2)n1 [Compound I-138]
6.30 to 7.30 | CC(C)n1cnnc1-c1cccc(-c2ncc(-c3nccs3)o2)n1 [Compound I-141]
6.30 to 7.30 | CC(C)n1cnnc1-c1cccc(-c2ncc(-c3nc4ccccc4o3)o2)n1 [Compound I-142]
≥ 7.30 | CC(C)n1cnnc1-c1cccc(-c2ncc(-c3cccc(-n4cnc(C5CC5)c4)c3)o2)n1 [Compound I-144]
6.30 to 7.30 | CC(C)n1cnnc1-c1cc(-c2ncc(-c3ccccc3)o2)cs1 [II-01, 3-[4-(5-Phenyl-1,3-oxazol-2-yl)thiophen-2-yl]-4-(propan-2-yl)-4H-1,2,4-triazole]

The remaining lines, values behind:

SMILES | pEC50
CC(C)N1CCN(c2cccc(-c3cnc(-c4cccc(-c5nncn5C(C)C)n4)o3)c2)CC1 [Compound I-117] | ≥ 7.30
CC(C)n1cnnc1-c1cccc(-c2ncc(-c3cccc(N4CCN(C5CC5)CC4)c3)o2)n1 [Compound I-118] | ≥ 7.30
CC(C)n1cnnc1-c1cccc(-c2ncc(-c3cccc(N4CCN(S(C)(=O)=O)CC4)c3)o2)n1 [Compound I-119] | ≥ 7.30
CC(C)n1cnnc1-c1cccc(-c2ncc(-c3cccc(N4CCCCC4)c3)o2)n1 [Compound I-120] | 6.30 to 7.30
CC(C)n1cnnc1-c1cccc(-c2ncc(-c3cccc(N4C5CCCC4CC5)c3)o2)n1 [Compound I-121] | 6.30 to 7.30
CC(C)n1cnnc1-c1cccc(-c2ncc(-c3cccc(N4CCC(N5CCOCC5)CC4)c3)o2)n1 [Compound I-122] | 6.30 to 7.30
CC(C)n1cnnc1-c1cccc(-c2ncc(-c3cccc(C4CCNCC4)c3)o2)n1 [Compound I-123] | ≥ 7.30
CC(C)n1cnnc1-c1cccc(-c2ncc(-c3cccc(C4=CCN(C(=O)OC(C)(C)C)C4)c3)o2)n1 [Compound I-124] | 6.30 to 7.30
CC(C)n1cnnc1-c1cccc(-c2ncc(-c3cccc(N4CCCC4)c3)o2)n1 [Compound I-125] | ≥ 7.30
C[C@H](CO)n1cnnc1-c1cccc(-c2ncc(-c3cccc(N4CCCC4)c3)o2)n1 [Compound I-126] | ≥ 7.30
CC(C)n1cnnc1-c1cccc(-c2ncc(-c3cccc(N4CCC(N)C4)c3)o2)n1 (stereo not shown) [Compound I-127] | ≥ 7.30
CC(C)n1cnnc1-c1cccc(-c2ncc(-c3cccc(N4CCC(NC(=O)OC(C)(C)C)C4)c3)o2)n1 (stereo not shown) [Compound I-128] | ≥ 7.30
C[C@H](CO)n1cnnc1-c1cccc(-c2ncc(-c3cccc(C4CCCCC4)c3)o2)n1 [Compound I-129] | ≥ 7.30
C[C@H](CO)n1cnnc1-c1cccc(-c2ncc(-c3cccc(C4=CCCCC4)c3)o2)n1 [Compound I-130] | 6.30 to 7.30
